Results published in paper PMC10224994, “Dual synergistic inhibition of COX and LOX by potential chemicals from Indian daily spices investigated through detailed computational studies” (Scientific Reports, 2023).
Read-outs that look alike come from different tables or passages of the source.

Legend:
Assay type in all cases: biochemical
COX-1 (ovine) = target: T1, COX-1 (ovine) (Ovis aries, UniProt P05979); test: In vitro COX-1 inhibition assay (EIA kit)
T1 construct: purchased Cayman Chemical
T1 sequence (P05979 25-600): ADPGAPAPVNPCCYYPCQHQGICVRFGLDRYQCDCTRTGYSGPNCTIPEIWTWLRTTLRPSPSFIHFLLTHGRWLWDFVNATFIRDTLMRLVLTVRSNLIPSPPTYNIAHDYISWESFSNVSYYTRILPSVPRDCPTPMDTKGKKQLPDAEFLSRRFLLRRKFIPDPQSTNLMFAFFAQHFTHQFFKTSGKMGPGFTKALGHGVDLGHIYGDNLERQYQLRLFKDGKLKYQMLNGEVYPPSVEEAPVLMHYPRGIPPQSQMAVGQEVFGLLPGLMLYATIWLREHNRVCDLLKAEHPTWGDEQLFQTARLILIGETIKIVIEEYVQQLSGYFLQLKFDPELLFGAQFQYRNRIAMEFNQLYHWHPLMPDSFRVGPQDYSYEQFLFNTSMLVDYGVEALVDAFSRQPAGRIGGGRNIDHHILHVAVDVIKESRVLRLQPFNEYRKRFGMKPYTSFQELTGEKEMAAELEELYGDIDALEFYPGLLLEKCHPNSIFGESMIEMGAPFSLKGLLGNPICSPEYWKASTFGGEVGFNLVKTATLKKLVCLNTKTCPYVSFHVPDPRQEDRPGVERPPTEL
Procedure: (§1) The inhibitory activity was measured and reported as IC50 value (µM). Data are expressed as IC50 ± SEM for triplicate studies.
(§2) Colorimetric enzyme immunoassay (EIA) was used to assess the inhibitory potential of the test compounds against COX-1, COX-2, and 5-LOX enzymes.

[1] = target: T2, COX-2 (human recombinant) (Homo sapiens, UniProt P35354); test: In vitro COX-2 inhibition assay (EIA kit); settings: mean of three replicates ± SEM
T2 construct: purchased Cayman Chemical
T2 sequence (P35354 18-604): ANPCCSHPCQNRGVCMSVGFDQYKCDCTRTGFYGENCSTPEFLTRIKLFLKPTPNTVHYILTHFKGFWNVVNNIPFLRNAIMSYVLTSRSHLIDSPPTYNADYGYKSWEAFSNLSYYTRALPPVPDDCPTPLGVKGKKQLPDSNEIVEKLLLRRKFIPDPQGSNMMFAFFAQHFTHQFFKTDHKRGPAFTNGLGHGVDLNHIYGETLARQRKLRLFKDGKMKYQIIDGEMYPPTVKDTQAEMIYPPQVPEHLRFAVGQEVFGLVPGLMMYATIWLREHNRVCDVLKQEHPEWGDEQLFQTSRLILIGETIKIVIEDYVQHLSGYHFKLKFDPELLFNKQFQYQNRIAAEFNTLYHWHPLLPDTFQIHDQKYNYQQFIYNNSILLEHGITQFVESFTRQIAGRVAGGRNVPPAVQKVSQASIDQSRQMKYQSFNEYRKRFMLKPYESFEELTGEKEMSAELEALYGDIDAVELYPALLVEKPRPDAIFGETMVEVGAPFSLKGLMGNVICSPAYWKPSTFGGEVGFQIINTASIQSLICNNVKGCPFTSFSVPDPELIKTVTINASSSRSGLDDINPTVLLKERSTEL
Procedure: as §1, §2

5-LOX enzyme = target: T3, 5-LOX enzyme (Homo sapiens, UniProt P09917); test: In vitro 5-LOX inhibition assay (Human Lipoxygenase Inhibitor screening kit); settings: mean of three replicates ± SEM
T3 construct: purchased Cayman Chemical
T3 sequence (P09917 1-674): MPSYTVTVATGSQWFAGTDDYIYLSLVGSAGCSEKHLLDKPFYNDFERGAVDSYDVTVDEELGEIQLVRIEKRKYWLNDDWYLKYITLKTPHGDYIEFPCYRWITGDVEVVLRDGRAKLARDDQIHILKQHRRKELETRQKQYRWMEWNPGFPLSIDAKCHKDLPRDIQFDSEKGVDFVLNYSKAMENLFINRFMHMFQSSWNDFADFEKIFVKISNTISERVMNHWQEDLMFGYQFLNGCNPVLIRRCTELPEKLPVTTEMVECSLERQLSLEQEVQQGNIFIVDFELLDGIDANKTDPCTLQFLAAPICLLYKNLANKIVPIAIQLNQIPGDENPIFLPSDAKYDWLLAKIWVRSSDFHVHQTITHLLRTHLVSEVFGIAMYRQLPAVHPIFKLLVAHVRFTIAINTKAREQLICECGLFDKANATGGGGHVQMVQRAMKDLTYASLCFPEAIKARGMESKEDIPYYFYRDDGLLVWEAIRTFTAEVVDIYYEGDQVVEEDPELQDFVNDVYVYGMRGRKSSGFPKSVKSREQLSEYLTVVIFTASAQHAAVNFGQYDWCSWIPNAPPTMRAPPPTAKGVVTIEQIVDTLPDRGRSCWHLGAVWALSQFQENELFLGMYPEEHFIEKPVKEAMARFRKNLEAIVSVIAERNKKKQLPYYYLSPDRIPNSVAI
Procedure: The ability of the test compounds to inhibit the 5-LOX enzyme was evaluated using the Human Lipoxygenase Inhibitor screening assay (EIA) kit (Cayman Chemical). The IC50 values were measured in µM according to the manufacturer’s instructions and reported method[63]–[65]. Data are expressed as IC50 ± SEM for triplicate studies.
as §2

For `CCCCC[C@H](O)CC(=O)CCc1ccc(O)c(OC)c1` [Gingerol, (S)-5-hydroxy-1-(4-hydroxy-3-methoxyphenyl)decan-3-one], the IC50 (COX-1 (ovine); mean of three replicates ± SEM, read-out: IC50 data COX-1) was 27.1 ± 0.82 µM, the IC50 [1] was 32.82 ± 0.24 µM and the IC50 (5-LOX enzyme) was 42.65 ± 0.17 µM.

`COc1cc(/C=C/C(=O)CC(=O)/C=C/c2ccc(O)c(OC)c2)ccc1O` [Curcumin, (1E,6E)-1,7-bis(4-hydroxy-3-methoxyphenyl)hepta-1,6-diene-3,5-dione] was tested, and the IC50 (COX-1 (ovine)) was 18.6 ± 0.44 µM.

`COc1cc(CNC(=O)CCCC/C=C/C(C)C)ccc1O` [Capsaicin, (E)-N-(4-hydroxy-3-methoxybenzyl)-8-methylnon-6-enamide] gave an IC50 (COX-1 (ovine)) of 24.4 ± 0.62 µM, an IC50 [1] of 28.3 ± 0.55 µM and an IC50 (5-LOX enzyme) of 36.4 ± 0.39 µM.
